Laboratory results from patent US10703764B2, “Benzopiperazine compositions as BET bromodomain inhibitors” (FORMA Therapeutics, Inc., priority 2013, dated 2020).

What was measured:
[1] = test system: MV4-11 cells; assay: Oncology cell growth assay (3-day proliferation, CellTiter-Glo); format: cell-based; conditions: Homo sapiens, MV4-11, 72 h, AML cell line MV4-11, 72 hours, compounds grouped by IC50 range, read-out: MV4-11 IC50 (inhibition of proliferation, gIC50)
Method: The impact of Example compounds on cancer cell proliferation was determined using the acute myelocytic leukemia (AML) cell line MV4-11 (ATCC) in a 3-day proliferation assay. MV4-11 cells were maintained in RPMI 1640 media supplemented with 10% FBS at 37° C. and an atmosphere of 5% CO2. For compound testing, compound dilutions series were prepared in DMSO via a 3-fold serial dilution from 2 mM to 0.001 mM in 384-well white flat bottom plates. The final compound concentrations in the wells were 10, 3.3, 1.1, 0.37, 0.12, 0.041, 0.013 and 0.0045 μM. MV4-11 cells were plated at a density of 3000 cells/well in final volume of 50 μl culture media and incubated for 72 hours. […] Luminescent signal from the CellTiter-Glo assay was read on an EnVision multilabel plate reader (PerkinElmer). Values for the concentration that inhibited cell growth by 50% (gIC50) between the DMSO control and background control (no cells) were determined using IDBS Activity Base software with a four parameter logistic curve fit by the equation y=A+((B−A)/(1+((C/x)^D))), wherein A denotes the bottom plateau of the curve, B denotes the top plateau of the curve, C denotes the x value at the middle of the curve, D denotes the slope factor, x denotes the original known x values, and y denotes the original known y values. Data was fitted using the Levenburg Marquardt algorithm.

[2] = target: T1, BRD4 BD2 (Homo sapiens, UniProt O60885); assay: AlphaScreen binding assay, BRD4 Bromodomain 2
T1 construct: made in house
Procedure, shortened: (§1)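 An AlphaScreen competition format was used with His-BRD4 BD1 or BD2 and biotin-H4 K5/8/12/16-acetyl peptide, each at matched final levels of 50 nM (BD1) or 100 nM (BD2). Incubation in HEPES/NaCl buffer with 0.1% BSA and 0.01% Triton X-100 ran ≥1 h before IC50 determination.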

[3] = target: T2, BRD4 BD1 (Homo sapiens, UniProt O60885); assay: AlphaScreen binding assay, BRD4 Bromodomain 1
T2 construct: made in house
Procedure, shortened: as §1

| Structure (SMILES) | IC50 [1] [nM] | IC50 [2] [nM] | IC50 [3] [nM] |
| --- | --- | --- | --- |
| CC(=O)N1c2ccc(-c3cnn(C4CCOCC4)c3)cc2N(C(=O)OC2CCC(F)(F)CC2)C[C@@H]1C [Example I-2, (S)-4,4-difluorocyclohexyl 4-acetyl-3-methyl-7-(1-(tetrahydro-2H-pyran-4-yl)-1H-pyrazol-4-yl)-3,4-dihydroquinoxaline-1(2H)-carboxylate] | 100 to 500 | 50 to 500 | 100 to 1000 |
| CC(=O)N1c2ccc(-c3cnn(C4CCOCC4)c3)cc2N(C(=O)OC2CC(F)(F)C2)C[C@@H]1C [Example I-4, (S)-3,3-difluorocyclobutyl 4-acetyl-3-methyl-7-(1-(tetrahydro-2H-pyran-4-yl)-1H-pyrazol-4-yl)-3,4-dihydroquinoxaline-1(2H)-carboxylate] | 100 to 500 | 50 to 500 | 100 to 1000 |
| CC(=O)N1c2ccc(-c3cnn(C4CC4)c3)cc2N(C(=O)C2CC2)C[C@@H]1C [Example I-8, (S)-1-(4-(cyclopropanecarbonyl)-6-(1-cyclopropyl-1H-pyrazol-4-yl)-2-methyl-3,4-dihydroquinoxalin-1(2H)-yl)ethanone] | 100 to 500 | < 50 | 100 to 1000 |
| CC(=O)N1c2ccc(-c3cnn(C4COC4)c3)cc2N(C(=O)C2CC2)C[C@@H]1C [Example I-10, (S)-1-(4-(cyclopropanecarbonyl)-2-methyl-6-(1-(oxetan-3-yl)-1H-pyrazol-4-yl)-3,4-dihydroquinoxalin-1(2H)-yl)ethanone] | 100 to 500 | 50 to 500 | 100 to 1000 |
| CC(=O)N1c2ccc(-c3cnn(C4CC4)c3)cc2N(C(=O)OC2CCCC2)C[C@@H]1C [Example I-23, (S)-cyclopentyl 4-acetyl-7-(1-cyclopropyl-1H-pyrazol-4-yl)-3-methyl-3,4-dihydroquinoxaline-1(2H)-carboxylate] | < 100 | 50 to 500 | < 100 |
| CC(=O)N1c2ccc(-c3cnn(C4CCC4)c3)cc2N(C(=O)OC2CCCC2)C[C@@H]1C [Example I-25, (S)-cyclopentyl 4-acetyl-7-(1-cyclobutyl-1H-pyrazol-4-yl)-3-methyl-3,4-dihydroquinoxaline-1(2H)-carboxylate] | < 100 | < 50 | < 100 |
| CC(=O)N1c2ccc(-c3cnn(C4CC4)c3)cc2N(C(=O)OC2CC(F)(F)C2)C[C@@H]1C [Example I-26, (S)-3,3-difluorocyclobutyl 4-acetyl-7-(1-cyclopropyl-1H-pyrazol-4-yl)-3-methyl-3,4-dihydroquinoxaline-1(2H)-carboxylate] | 100 to 500 | 50 to 500 | 100 to 1000 |
| CC(=O)N1c2ccc(-c3cnn(CCO)c3)cc2N(C(=O)OC2CC(F)(F)C2)C[C@@H]1C [Example I-27, (S)-3,3-difluorocyclobutyl 4-acetyl-7-(1-(2-hydroxyethyl)-1H-pyrazol-4-yl)-3-methyl-3,4-dihydroquinoxaline-1(2H)-carboxylate] | 100 to 500 | 50 to 500 | 100 to 1000 |
| CC(=O)N1c2ccc(-c3cnn(C4CN[C@H]4C)c3)cc2N(C(=O)OC2CCC2)C[C@@H]1C (stereo partly drawn) [Example I-178, cyclobutyl (3S)-4-acetyl-3-methyl-7-{1-[(2S)-2-methylazetidin-3-yl]-1H-pyrazol-4-yl}-1,2,3,4-tetrahydroquinoxaline-1-carboxylate] | 100 to 500 | – | 100 to 1000 |
| CC(C)OC(=O)N1C[C@H](C)N(C(=O)C2CC2)c2ccc(-c3ccc(C(=O)N(C)CC(=O)N(C)C)cc3)cc21 [Example I-560] | 100 to 500 | – | 100 to 1000 |

Further lines, results first:

| IC50 [1] [nM] | IC50 [2] [nM] | IC50 [3] [nM] | Structure (SMILES) |
| --- | --- | --- | --- |
| < 100 | 50 to 500 | 100 to 1000 | COc1ccccc1OC(=O)N1C[C@H](C)N(C(C)=O)c2ccc(-c3cnn(C4COC4)c3)cc21 [Example I-3, (S)-2-methoxyphenyl 4-acetyl-3-methyl-7-(1-(oxetan-3-yl)-1H-pyrazol-4-yl)-3,4-dihydroquinoxaline-1(2H)-carboxylate] |
| 100 to 500 | 50 to 500 | 100 to 1000 | CC(=O)N1c2ccc(-c3ccc(S(C)(=O)=O)cc3)cc2N(C(=O)OC2CC(F)(F)C2)C[C@@H]1C [Example I-5, (S)-3,3-difluorocyclobutyl 4-acetyl-3-methyl-7-(4-(methylsulfonyl)phenyl)-3,4-dihydroquinoxaline-1(2H)-carboxylate] |
| 100 to 500 | 50 to 500 | 100 to 1000 | CCOC(=O)N1C[C@H](C)N(C(C)=O)c2ccc(-c3cnn(C4COC4)c3)cc21 [Example I-9, (S)-ethyl 4-acetyl-3-methyl-7-(1-(oxetan-3-yl)-1H-pyrazol-4-yl)-3,4-dihydro-quinoxaline-1(2H)-carboxylate] |
| 100 to 500 | < 50 | < 100 | CC(=O)N1c2ccc(-c3cnn(CCO)c3)cc2N(C(=O)OC(C)C)C[C@@H]1C [Example I-12, (S)-isopropyl 4-acetyl-7-(1-(2-hydroxyethyl)-1H-pyrazol-4-yl)-3-methyl-3,4-dihydroquinoxaline-1(2H)-carboxylate] |
| 100 to 500 | < 50 | 100 to 1000 | CC(=O)N1c2ccc(-c3cn[nH]c3)cc2N(C(=O)c2ccco2)C[C@@H]1C [Example I-13, (S)-1-(4-(furan-2-carbonyl)-2-methyl-6-(1H-pyrazol-4-yl)-3,4-dihydro-quinoxalin-1(2H)-yl)ethanone] |
| 100 to 500 | < 50 | 1000 to 10000 | CC(=O)N1c2ccc(-c3cc[nH]n3)cc2N(C(=O)c2ccco2)C[C@@H]1C [Example I-14, (S)-1-(4-(furan-2-carbonyl)-2-methyl-6-(1H-pyrazol-3-yl)-3,4-dihydro-quinoxalin-1(2H)-yl)ethanone] |
| 100 to 500 | < 50 | 1000 to 10000 | CC(=O)N1c2ccc(-c3cnc(C)s3)cc2N(C(=O)c2ccco2)C[C@@H]1C [Example I-15, (S)-1-(4-(furan-2-carbonyl)-2-methyl-6-(2-methylthiazol-5-yl)-3,4-dihydroquinoxalin-1(2H)-yl)ethanone] |
| < 100 | < 50 | 100 to 1000 | CC(=O)N1c2ccc(-c3cn[nH]c3)cc2N(C(=O)Oc2ccccc2)C[C@@H]1C [Example I-16, (S)-phenyl 4-acetyl-3-methyl-7-(1H-pyrazol-4-yl)-3,4-dihydroquinoxaline-1(2H)-carboxylate] |
| 100 to 500 | < 50 | 100 to 1000 | COCCn1cc(-c2ccc3c(c2)N(C(=O)OC(C)C)C[C@H](C)N3C(C)=O)cn1 [Example I-17, (S)-isopropyl 4-acetyl-7-(1-(2-methoxyethyl)-1H-pyrazol-4-yl)-3-methyl-3,4-dihydroquinoxaline-1(2H)-carboxylate] |
| 100 to 500 | < 50 | 100 to 1000 | COCCn1cc(-c2ccc3c(c2)N(C(=O)c2ccco2)C[C@H](C)N3C(C)=O)cn1 [Example I-18, (S)-1-(4-(furan-2-carbonyl)-6-(1-(2-methoxyethyl)-1H-pyrazol-4-yl)-2-methyl-3,4-dihydroquinoxalin-1(2H)-yl)ethanone] |
| 100 to 500 | 50 to 500 | 1000 to 10000 | CCOC(=O)N1C[C@H](C)N(C(C)=O)c2ccc(-c3cn[nH]c3)cc21 [Example I-19, (S)-ethyl 4-acetyl-3-methyl-7-(1H-pyrazol-4-yl)-3,4-dihydroquinoxaline-1(2H)-carboxylate] |
| 100 to 500 | 50 to 500 | < 100 | CC(=O)N1c2ccc(-c3cn[nH]c3)cc2N(C(=O)OC2CCCC2)C[C@@H]1C [Example I-20, (S)-cyclopentyl 4-acetyl-3-methyl-7-(1H-pyrazol-4-yl)-3,4-dihydro-quinoxaline-1(2H)-carboxylate] |
| 100 to 500 | 50 to 500 | 100 to 1000 | CCOC(=O)N1C[C@H](C)N(C(C)=O)c2ccc(-c3cnn(C4CC4)c3)cc21 [Example I-21, (S)-ethyl 4-acetyl-7-(1-cyclopropyl-1H-pyrazol-4-yl)-3-methyl-3,4-dihydroquinoxaline-1(2H)-carboxylate] |
| < 100 | 50 to 500 | 100 to 1000 | CC(=O)N1c2ccc(-c3cnn(C4CC4)c3)cc2N(C(=O)OC(C)C)C[C@@H]1C [Example I-22, (S)-isopropyl 4-acetyl-7-(1-cyclopropyl-1H-pyrazol-4-yl)-3-methyl-3,4-dihydroquinoxaline-1(2H)-carboxylate] |
| 100 to 500 | 50 to 500 | < 100 | CC(=O)N1c2ccc(-c3cnn(C4CCC4)c3)cc2N(C(=O)OC(C)C)C[C@@H]1C [Example I-24, (S)-isopropyl 4-acetyl-7-(1-cyclobutyl-1H-pyrazol-4-yl)-3-methyl-3,4-dihydroquinoxaline-1(2H)-carboxylate] |
| 100 to 500 | – | 100 to 1000 | CC(=O)N1c2ccc(-c3ccc(C(=O)NCCN)cc3)cc2N(C(=O)OC(C)C)C[C@@H]1C [Example I-480] |
